# Measured values: patent publication US20240116985A1, “STAPLED PEPTIDES AND METHODS THEREOF” (priority 2020, published 2024)
# Like-named read-outs stand apart in the source and are kept apart here.
# Experiments:
# [1] = target: T1, full-length beta-Catenin (Uniprot ID P35222) (Homo sapiens, UniProt P35222); assay: Fluorescence polarization IC50 (beta-catenin / 5FAM-TCF4 10-53 competition); type: binding
# T1 construct: 10 nM full-length beta-Catenin (Uniprot ID P35222)
# T1 sequence (P35222 1-781): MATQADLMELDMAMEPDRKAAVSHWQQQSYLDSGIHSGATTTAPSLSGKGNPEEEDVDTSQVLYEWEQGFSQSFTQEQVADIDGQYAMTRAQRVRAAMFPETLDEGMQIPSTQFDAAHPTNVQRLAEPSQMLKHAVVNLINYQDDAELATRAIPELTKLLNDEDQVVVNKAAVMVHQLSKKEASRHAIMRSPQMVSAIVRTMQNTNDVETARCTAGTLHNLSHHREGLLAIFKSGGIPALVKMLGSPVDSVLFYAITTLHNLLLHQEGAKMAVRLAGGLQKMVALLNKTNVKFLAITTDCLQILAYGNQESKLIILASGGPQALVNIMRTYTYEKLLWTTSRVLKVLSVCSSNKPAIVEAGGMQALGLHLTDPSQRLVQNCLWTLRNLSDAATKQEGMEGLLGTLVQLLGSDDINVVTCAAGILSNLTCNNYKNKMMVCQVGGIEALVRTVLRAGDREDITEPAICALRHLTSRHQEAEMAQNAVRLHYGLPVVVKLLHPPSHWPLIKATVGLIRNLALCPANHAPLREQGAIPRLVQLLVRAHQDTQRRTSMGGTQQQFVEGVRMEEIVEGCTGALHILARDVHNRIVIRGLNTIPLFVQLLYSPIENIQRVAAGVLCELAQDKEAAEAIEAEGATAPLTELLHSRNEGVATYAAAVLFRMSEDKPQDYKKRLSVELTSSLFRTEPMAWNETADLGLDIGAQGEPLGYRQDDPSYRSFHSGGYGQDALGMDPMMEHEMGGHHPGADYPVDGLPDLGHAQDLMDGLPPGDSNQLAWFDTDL
# CHI Log D procedure = type: physicochemical; details: for CHI Log D: pH 7.4; for chromatographic logD: pH 7.4, CHI Log D
# [2] = target: T2, beta-catenin/TCF4 engagement (Homo sapiens, UniProt P35222); assay: Nano-BRET target engagement assay (B-cat-Halo & TCF4-Luc in HEK293 cells); type: cell-based; details: for inhibition at 10 µM: HEK293, @ 10 uM, read-out: NanoBRET % inh @ 10 uM
# T2 construct: expressed in transfected cells; host or cells: HEK293
# T2 sequence (P35222 1-781): T1 sequence (P35222 1-781)
# Solubility in PBS = type: physicochemical
# Method in brief: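 Read-out is the HPLC peak area of the supernatant from ultracentrifuged PBS solution, scaled against a 50 μM peptide DMSO injection; value reported as [(PBS area)/(DMSO area)]*50 uM.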
# [3] = fluorescence polarization, read-out: beta-Catenin FP IC50
# [4] = absolute IC50, read-out: NanoBRET Abs IC50
"IC50 [1, 3] [nM]",IC50 ([1]; read-out: FP EC50) [nM],CHI Log D (CHI Log D procedure),"IC50 [2, 4] [nM]",Solubility (Solubility in PBS) [µM],chromatographic logD (CHI Log D procedure),Solubility (Solubility in PBS; Solubility (uM)) [µM],"IC50 ([2]; Abs IC50, read-out: NanoBRET Abs IC50) [nM]",IC50 ([1]; read-out: beta-Catenin FP IC50) [nM],IC50 ([2]; read-out: NanoBRET Abs IC50) [nM],inhibition at 10 µM [2] [%],IC50 ([2]; read-out: NanoBRET IC50) [nM],SMILES
35,35,2.377,11200,44,–,–,–,–,–,–,–,"CC(=O)N1CCC[C@]12CC=CCCCC1(CCCC=CCCCCCC[C@@](C)(C(=O)N[C@@H](Cc3ccccc3)C(=O)N[C@@H](Cc3csc4ccccc34)C(=O)N[C@@H](CCC(N)=O)C(=O)N[C@@H](C)C(N)=O)NC(=O)[C@H](CC(N)=O)NC(=O)[C@H](Cc3ccccc3)NC(=O)[C@H](C)NC(=O)[C@H](C)NC(=O)[C@H](CCC(=O)O)NC(=O)[C@H](CC(=O)O)NC1=O)NC(=O)[C@H](CC(C)C)NC(=O)[C@H](CC(=O)O)NC2=O (stereo partly drawn) [I-730, Ac-PL3-Asp-Leu-B5-Asp-Glu-Ala-Ala-Phe-Asn-S8-Phe-BztA-Gln-Ala-NH2]"
34,–,–,11600,–,2.33,48,–,–,–,–,–,"CC(=O)N1CCC[C@]12CC=CCCCC1(CCCC=CCCCCCC[C@@](C)(C(=O)N[C@@H](Cc3ccccc3)C(=O)N[C@@H](Cc3csc4ccccc34)C(=O)N[C@@H](CCC(N)=O)C(=O)N[C@H](C)C(N)=O)NC(=O)[C@H](CC(N)=O)NC(=O)[C@H](Cc3ccccc3)NC(=O)[C@H](C)NC(=O)[C@H](C)NC(=O)[C@H](CCC(=O)O)NC(=O)[C@H](CC(=O)O)NC1=O)NC(=O)[C@H](CC(C)C)NC(=O)[C@H](CC(=O)O)NC2=O (stereo partly drawn) [I-731, Ac-PL3-Asp-Leu-B5-Asp-Glu-Ala-Ala-Phe-Asn-S8-Phe-BztA-Gln-dAla-NH2]"
40,40,2.472,9000,45,–,–,–,–,–,–,–,"CC(=O)N1CCC[C@]12CC=CCCCC1(CCCC=CCCCCCC[C@@](C)(C(=O)N[C@@H](Cc3ccccc3)C(=O)N[C@@H](Cc3csc4ccccc34)C(=O)N[C@H](C(N)=O)[C@@H](C)O)NC(=O)[C@H](CC(N)=O)NC(=O)[C@H](Cc3ccccc3)NC(=O)[C@H](C)NC(=O)[C@H](C)NC(=O)[C@H](CCC(=O)O)NC(=O)[C@H](CC(=O)O)NC1=O)NC(=O)[C@H](CC(C)C)NC(=O)[C@H](CC(=O)O)NC2=O (stereo partly drawn) [I-749, Ac-PL3-Asp-Leu-B5-Asp-Glu-Ala-Ala-Phe-Asn-S8-Phe-BztA-Thr-NH2]"
43,43,2.441,7400,48,–,–,–,–,–,–,–,"CC(=O)N1CCC[C@]12CC=CCCCC1(CCCC=CCCCCCC[C@@](C)(C(=O)N[C@@H](Cc3ccccc3)C(=O)N[C@@H](Cc3csc4ccccc34)C(=O)N[C@@H](CO)C(N)=O)NC(=O)[C@H](CC(N)=O)NC(=O)[C@H](Cc3ccccc3)NC(=O)[C@H](C)NC(=O)[C@H](C)NC(=O)[C@H](CCC(=O)O)NC(=O)[C@H](CC(=O)O)NC1=O)NC(=O)[C@H](CC(C)C)NC(=O)[C@H](CC(=O)O)NC2=O (stereo partly drawn) [I-750, Ac-PL3-Asp-Leu-B5-Asp-Glu-Ala-Ala-Phe-Asn-S8-Phe-BztA-Ser-NH2]"
29,29,2.513,7100,48,–,–,–,–,–,–,–,"CC(=O)N1CCC[C@]12CC=CCCCC1(CCCC=CCCCCCC[C@@](C)(C(=O)N[C@@H](Cc3ccccc3)C(=O)N[C@@H](Cc3csc4ccccc34)C(=O)N[C@@H](CO)C(N)=O)NC(=O)[C@H](CC(N)=O)NC(=O)[C@H](Cc3ccccc3)NC(=O)[C@H](C)NC(=O)[C@H](C)NC(=O)[C@H](CCC(=O)O)NC(=O)[C@H](CC(=O)O)NC1=O)NC(=O)[C@H](CC(C)C)NC(=O)[C@H](CC(=O)O)NC2=O (stereo partly drawn) [I-751, Ac-PL3-Asp-Leu-B5-Asp-Glu-Ala-Ala-Phe-Asn-S8-Phe-BztA-Ser-NH2]"
14,14,2.432,10000,50,–,–,10000,–,–,–,–,"CC(=O)N1CCC[C@]12CC=CCCCC1(CCCC=CCCCCCC[C@@](C)(C(=O)N[C@@H](Cc3ccccc3)C(=O)N[C@@H](Cc3csc4ccccc34)C(=O)N[C@@H](CC(N)=O)C(N)=O)NC(=O)[C@H](CC(N)=O)NC(=O)[C@H](Cc3ccccc3)NC(=O)[C@H](C)NC(=O)[C@H](C)NC(=O)[C@H](CCC(=O)O)NC(=O)[C@H](CC(=O)O)NC1=O)NC(=O)[C@H](CC(C)C)NC(=O)[C@H](CC(=O)O)NC2=O (stereo partly drawn) [I-753, Ac-PL3-Asp-Leu-B5-Asp-Glu-Ala-Ala-Phe-Asn-S8-Phe-BztA-Asn-NH2]"
–,12,2.004,–,50,–,–,–,12,37200,–,–,"CC(=O)N1CCC[C@]12CC=CCCCC1(CCCC=CCCCCOC(=O)N3CC[C@@](C(=O)N[C@@H](Cc4ccsc4)C(=O)N[C@@H](Cc4csc5ccccc45)C(=O)N[C@@H](CCC(N)=O)C(N)=O)(C3)NC(=O)[C@H](CC(N)=O)NC(=O)[C@H](Cc3ccccc3)NC(=O)[C@H](C)NC(=O)[C@H](C)NC(=O)[C@H](CC(=O)O)NC(=O)[C@H](CC(=O)O)NC1=O)NC(=O)[C@H](CC(C)(C)C)NC(=O)[C@H](CC(=O)O)NC2=O (stereo partly drawn) [I-767, Ac-PL3-Asp-Npg-B5-Asp-Asp-Ala-Ala-Phe-Asn-PyrS3-3Thi-BztA-Gln-NH2]"
–,7,2.092,–,47,–,–,–,6,> 20000,5.1,–,"CC(=O)N1CCC[C@]12CC=CCCCC1(CCCC=CCCCCOC(=O)N3CC[C@@](C(=O)N[C@@H](Cc4ccsc4)C(=O)N[C@@H](Cc4csc5ccccc45)C(=O)N[C@@H](Cc4c[nH]cn4)C(N)=O)(C3)NC(=O)[C@H](CC(N)=O)NC(=O)[C@H](Cc3ccccc3)NC(=O)[C@H](C)NC(=O)[C@H](C)NC(=O)[C@H](CC(=O)O)NC(=O)[C@H](CC(=O)O)NC1=O)NC(=O)[C@H](CC(C)(C)C)NC(=O)[C@H](CC(=O)O)NC2=O (stereo partly drawn) [I-775, Ac-PL3-Asp-Npg-B5-Asp-Asp-Ala-Ala-Phe-Asn-PyrS3-3Thi-BztA-His-NH2]"
–,–,–,–,50,2.15,–,–,5,19800,24.5,14400,"CC(=O)N1CCC[C@]12CC=CCCCC1(CCCC=CCCCOC(=O)N3CC[C@@](C(=O)N[C@@H](Cc4ccccc4)C(=O)N[C@@H](Cc4csc5ccccc45)C(=O)N[C@@H](Cc4c[nH]cn4)C(N)=O)(C3)NC(=O)[C@H](CC(N)=O)NC(=O)[C@H](Cc3ccccc3)NC(=O)[C@H](C)NC(=O)[C@H](C)NC(=O)[C@H](CC(=O)O)NC(=O)[C@H](CC(=O)O)NC1=O)NC(=O)[C@H](CC(C)(C)C)NC(=O)[C@H](CC(=O)O)NC2=O (stereo partly drawn) [I-777, Ac-PL3-Asp-Npg-B5-Asp-Asp-Ala-Ala-Phe-Asn-PyrS2-Phe-BztA-His-NH2]"
–,–,–,–,–,2.04,43,–,8,11200,–,–,"CC(=O)N1CCC[C@]12CC=CCCCC1(CCCC=CCCCOC(=O)N3CC[C@@](C(=O)N[C@@H](Cc4cccs4)C(=O)N[C@@H](Cc4csc5ccccc45)C(=O)N[C@@H](CCC(N)=O)C(N)=O)(C3)NC(=O)[C@H](CC(N)=O)NC(=O)[C@H](Cc3ccccc3)NC(=O)[C@H](C)NC(=O)[C@H](C)NC(=O)[C@H](CC(=O)O)NC(=O)[C@H](CC(=O)O)NC1=O)NC(=O)[C@H](CC(C)(C)C)NC(=O)[C@H](CC(=O)O)NC2=O (stereo partly drawn) [I-778, Ac-PL3-Asp-Npg-B5-Asp-Asp-Ala-Ala-Phe-Asn-PyrS2-2Thi-BztA-Gln-NH2]"
